Assay results reported in patent EP3797781A1, “USE OF EC-7072 AND SYNERGIC COMPOSITIONS THEREOF IN TREATMENT OF CHRONIC LYMPHOCYTIC LEUKEMIA” (priority 2019, dated 2021).

Tested on: primary CLL cells
Test: Leukemia cell viability and apoptosis by DiOC6(3)/PI staining and flow cytometry
Type: cell-based, human
Experimental: Cell viability and apoptosis were evaluated by double-staining with the mitochondrial inner transmembrane potential (ΔΨm)-sensitive dye DiOC6(3) (3,3'-dihexyloxacarbocyanine iodide; Sigma-Aldrich) and the exclusion dye propidium iodide (PI; Immunostep), allowing identification of apoptotic [DiOC6(3)^low PI^-] and dead [PI^+] cells as per Proc. Natl. Acad. Sci. U.S.A. (2014) 111(8):3020-3025 and Methods Mol. Biol. (2016) 1419:1-16. Briefly, PBMCs were resuspended in culture medium containing 20 nM DiOC6(3) and incubated for 30 minutes at 37 °C. Then, PI (1 µg/mL) was added and cells were further incubated for 10 minutes at room temperature (RT). Cells were analyzed by flow cytometry considering DiOC6(3)^+PI^- cells as viable. In some experiments, apoptosis was evaluated by staining with Annexin V/PI. Thus, PBMCs were incubated in Annexin V binding buffer containing 5 µg/mL Annexin V-FITC (Biolegend) for 15 minutes at RT and PI (1 µg/mL) was subsequently added. Data were normalized to the untreated control as a percentage. Only samples with at least 60% of viable cells (DiOC6(3)^+; Annexin V^-) in the control (DMSO) condition were employed in this study.
The in vitro cytotoxic activity of EC-7072 against primary CLL cells was assessed by: • (i) incubating PBMCs isolated from patients with CLL (n = 13) following treatment with increasing concentrations of EC-7072 (0 - 400 nM) for 24 hours. Numbers of leukemia cells were evaluated by flow cytometry and normalized to their respective control (DMSO) condition for each individual patient to obtain percentage of leukemia cells (Figure 1A); • (ii) incubating PBMCs from patients with CLL (n = 10) with or without EC-7072 (100-400 nM) for 24 hours. Viability of leukemia cells was determined by cytofluorometric assessment of DiOC6(3)/PI staining and normalized to their respective control condition to obtain percentage viability (Figure 1B); • (iii) incubating PBMCs from patients with CLL (n = 10) with increasing concentrations of EC-7072 (0 - 400 nM) for 24 hours. Apoptosis of leukemia cells was determined by DiOC6(3)/PI staining and flow cytometry to obtain the mean percentages of apoptotic [DiOC6(3)^low PI^-] and dead [PI^+] cells (Figure 1C); • (iv) incubating PBMCs from patients with CLL (n = 10) with or without EC-7072 (200 nM) for 12 to 72 hours. Viability of leukemia cells was determined by DiOC6(3)/PI staining and normalized to their respective control condition to obtain percentage viability (Figure 1D); • (v) incubating PBMCs from patients with CLL (n = 24) with MTA (200 nM) or EC-7072 (200 nM) for 24 hours. Leukemia cell death was determined by DiOC6(3)/PI staining and flow cytometry to obtain the mean percentages of apoptotic [DiOC6(3)^low PI^-] and dead [PI^+] cells (Figure 1E); • (vi) incubating PBMCs from patients with CLL (n = 63) or healthy donors (n = 20) with or without EC-7072 (200 nM) for 24 hours. Viability of leukemia cells and healthy B cells was evaluated by DiOC6(3)/PI staining and normalized to their respective control condition to obtain percentage viability (Figure 1F); • (vii) incubating PBMCs from patients with CLL (n = 62) following treatment with EC-7072 (200 nM) for 24 hours and obtaining a cytogenetic profile for each patient. Viability of leukemia cells was evaluated by DiOC6(3)/PI staining and normalized to their respective control (DMSO) condition for each individual patient to obtain the percentage of viable [DiOC6(3)^+] cells (Figure 1G); • (viii) incubating PBMCs from patients with CLL (n = 59) following treatment with EC-7072 (200 nM) for 24 hours and determining mutational status of IgHV for each patient. Viability of leukemia cells was evaluated by DiOC6(3)/PI staining and normalized to their respective control (DMSO) condition for each individual patient to obtain the percentage of viable [DiOC6(3)^+] cells (Figure 1H). […]

`CO[C@@H]([C@@H]1Cc2cc3cc(O[C@H]4C[C@@H](O[C@H]5C[C@@H](O)[C@H](O)[C@@H](C)O5)[C@H](O)[C@@H](C)O4)c(C)c(O)c3c(O)c2C(=O)[C@H]1O[C@H]1C[C@@H](O[C@H]2C[C@@H](O[C@H]3C[C@](C)(O)[C@H](O)[C@@H](C)O3)[C@@H](O)[C@@H](C)O2)[C@H](O)[C@@H](C)O1)[C@@H](O)C(C)=O` [EC-7072, mithramycin SK] was tested, and the “cell death at 6 hours” value (200 nM, 6 hours, PBMCs from patients with CLL (n = 8), Figure 6C) was “not triggering detectable cell death”, the “CLL cell death at 8 hours” value (200 nM, 8 hours, n = 8, Figure 7K) was “does not result in noticeable CLL cell death” and the “ratio of apoptosis in CLL cells relative to CLL cell death” value (200 nM, 24 hours, PBMCs from patients with CLL (n = 6), exception: EC-14041, Figure 2P) was “higher ratio of apoptosis in CLL cells relative to CLL cell death than other mithralogs”. For the same compound, the “antileukemic activity (apoptotic [DiOC6(3)^low PI^-] and dead [PI^+] cells)” value (200 nM, 24 hours, PBMCs from patients with CLL (n = 24), compared with MTA 200 nM, Figure 1E) was “comparable to that of MTA”, the “antileukemic activity on isolated leukemia cells versus PBMCs (apoptotic and dead cells)” value (200 nM, 24 hours, isolated leukemia cells from patients with CLL (n = 24)) was “mimicked” and the “viability of leukemia cells by mutational status of IgHV” value (200 nM, 24 hours, n = 59, Figure 1H) was “did not significantly affect the sensitivity”. For the same compound, the “viability of leukemia cells by cytogenetic profile” value (200 nM, 24 hours, n = 62, patients with cytogenetic aberrations incl. del(17p) or del(11q), Figure 1G) was “no differences in the sensitivity”, the “viability of leukemia cells” value (100 - 400 nM for 24 hours, 200 nM for 12 to 72 hours, PBMCs from patients with CLL (n = 10), dose- and time-dependent, Figures 1B-1D) was “significantly decreased” and the “leukemia cell survival upon BCR stimulation with anti-IgM antibodies” value (EC-7072 200 nM in combination with α-IgM (10 µg/mL), 24 hours, n = 15) was “significantly rescued leukemia cell survival”. For the same compound, the “leukemia cell death in the presence of microenvironment-derived soluble factors” value (EC-7072 200 nM with CD40L (100 ng/mL), BAFF (50 ng/mL), TNF-α (40 ng/mL), IL-6 (40 ng/mL) or IL-4 (40 ng/mL), 24 hours, n = 7) was “none of the soluble factors tested significantly affected the leukemia cell death”, the “leukemia cell viability in co-culture with OP9 stromal cells” value (co-culture with OP9 cells 72 hours, EC-7072 200 nM for the last 24 hours, n = 7) was “did not enhance leukemia cell viability” and the “percentage viability of leukemia cells, comparison of mithralogs” value (each at 200 nM, 24 hours, PBMCs from patients with CLL (n = 10), Figure 2M) was “second only to the mithralog EC-7073”. The “CLL cell viability compared with idelalisib or fludarabine” value (range of doses, EC-7072 and fludarabine 24 hours, idelalisib 48 hours, n = 4 - 6, Figure 4A) was “reduced CLL cell viability to a greater extent than idelalisib or fludarabine”.
